Target: hDGAT2 (Homo sapiens (Human), UniProt Q96PD7)
Experiment: DGAT2 enzymatic activity assay (triolein formation, LC/MS/MS)
Details: not given

Sequence of hDGAT2 (Q96PD7 whole entry): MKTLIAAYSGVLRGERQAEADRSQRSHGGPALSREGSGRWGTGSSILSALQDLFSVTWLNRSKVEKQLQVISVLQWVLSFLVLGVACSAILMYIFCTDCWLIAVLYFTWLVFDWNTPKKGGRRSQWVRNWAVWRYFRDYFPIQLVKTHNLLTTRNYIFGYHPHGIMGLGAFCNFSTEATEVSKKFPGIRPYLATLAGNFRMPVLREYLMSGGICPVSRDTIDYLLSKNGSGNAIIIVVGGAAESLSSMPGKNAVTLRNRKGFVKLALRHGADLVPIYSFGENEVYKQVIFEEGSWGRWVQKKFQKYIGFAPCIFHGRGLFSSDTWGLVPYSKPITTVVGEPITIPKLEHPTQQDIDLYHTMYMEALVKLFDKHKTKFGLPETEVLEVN

Row | SMILES | IC50 [nM]
1 | COc1cccc(-c2ccc(CNC(=O)c3ccc(-n4cccn4)cc3)c3cnccc23)c1 [Example 65, N-((5-(3-methoxyphenyl)isoquinolin-8-yl)methyl)-4-(1H-pyrazol-1-yl)benzamide] | 2000

Same assay, conditions: read-out: IC50 values for inhibition of DGAT2; membrane prep of Sf-9 cells expressing hDGAT2; 25 μM diolein, 10 μM oleoyl-CoA; room temperature; triolein by LC/MS/MS

Row | SMILES | IC50 [nM]
2 | CCc1cc(C(=O)NCc2ccc(-c3cccc(OC)c3)c3ccncc23)n(C)n1 [Example 35, 3-ethyl-N-((5-(3-methoxyphenyl)isoquinolin-8-yl)methyl)-1-methyl-1H-pyrazole-5-carboxamide] | 3440
3 | COc1cccc(-c2ccc(CNC(=O)c3ccc4c(c3)OCCO4)c3cnccc23)c1 [Example 36, N-((5-(3-methoxyphenyl)isoquinolin-8-yl)methyl)-2,3-dihydrobenzo[b][1,4]dioxine-6-carboxamide] | 3010
4 | COc1cccc(-c2ccc(CNC(=O)c3cnco3)c3cnccc23)c1 [Example 37, N-((5-(3-methoxyphenyl)isoquinolin-8-yl)methyl)oxazole-5-carboxamide] | 1270
5 | COc1cccc(-c2ccc(CNC(=O)c3ncco3)c3cnccc23)c1 [Example 38, N-((5-(3-methoxyphenyl)isoquinolin-8-yl)methyl)oxazole-2-carboxamide] | 3200
6 | COc1cccc(-c2ccc(CNC(=O)c3noc4c3CCCC4)c3cnccc23)c1 [Example 39, N-((5-(3-methoxyphenyl)isoquinolin-8-yl)methyl)-4,5,6,7-tetrahydrobenzo[d]isoxazole-3-carboxamide] | 9390
7 | COc1cccc(-c2ccc(CNC(=O)c3ccc4nccnc4c3)c3cnccc23)c1 [Example 40, N-((5-(3-methoxyphenyl)isoquinolin-8-yl)methyl)quinoxaline-6-carboxamide] | 6000
8 | COc1cccc(-c2ccc(CNC(=O)C3CCCN(c4ccccn4)C3)c3cnccc23)c1 (stereo not shown) [Example 41, N-((5-(3-methoxyphenyl)isoquinolin-8-yl)methyl)-1-(pyridin-2-yl)piperidine-3-carboxamide] | 7780
9 | COc1cccc(-c2ccc(CNC(=O)c3nn(C)c(=O)c4ccccc34)c3cnccc23)c1 [Example 43, N-((5-(3-methoxyphenyl)isoquinolin-8-yl)methyl)-3-methyl-4-oxo-3,4-dihydrophthalazine-1-carboxamide] | 1570
10 | CCCc1cc(C(=O)NCc2ccc(-c3cccc(OC)c3)c3ccncc23)n(C)n1 [Example 44, N-((5-(3-methoxyphenyl)isoquinolin-8-yl)methyl)-1-methyl-3-propyl-1H-pyrazole-5-carboxamide] | 1430
11 | COc1cccc(-c2ccc(CNC(=O)c3cccc4ncccc34)c3cnccc23)c1 [Example 45, N-((5-(3-methoxyphenyl)isoquinolin-8-yl)methyl)quinoline-5-carboxamide] | 745
12 | COc1cccc(-c2ccc(CNC(=O)Cc3ccc(C(F)(F)F)cc3)c3cnccc23)c1 [Example 46, N-((5-(3-methoxyphenyl)isoquinolin-8-yl)methyl)-2-(4-(trifluoromethyl)phenyl)acetamide] | 317
13 | COc1cccc(-c2ccc(CNC(=O)Cc3ccc(Cl)cc3)c3cnccc23)c1 [Example 47, 2-(4-chlorophenyl)-N-((5-(3-methoxyphenyl)isoquinolin-8-yl)methyl)acetamide] | 1400
14 | COc1cccc(-c2ccc(CNC(=O)Cc3cccc(C(F)(F)F)c3)c3cnccc23)c1 [Example 48, N-((5-(3-methoxyphenyl)isoquinolin-8-yl)methyl)-2-(3-(trifluoromethyl)phenyl)acetamide] | 291
15 | COc1cccc(-c2ccc(CNC(=O)Cc3ccccc3F)c3cnccc23)c1 [Example 49, 2-(2-fluorophenyl)-N-((5-(3-methoxyphenyl)isoquinolin-8-yl)methyl)acetamide] | 993
16 | COc1cccc(-c2ccc(CNC(=O)Cc3ccccc3C(F)(F)F)c3cnccc23)c1 [Example 51, N-((5-(3-methoxyphenyl)isoquinolin-8-yl)methyl)-2-(2-(trifluoromethyl)phenyl)acetamide] | 1750
17 | COc1cccc(-c2ccc(CNC(=O)Cc3cccc(F)c3)c3cnccc23)c1 [Example 52, 2-(3-fluorophenyl)-N-((5-(3-methoxyphenyl)isoquinolin-8-yl)methyl)acetamide] | 3710
18 | COc1cccc(-c2ccc(CNC(=O)Cc3ccc(Oc4ccccc4)cc3)c3cnccc23)c1 [Example 53, N-((5-(3-methoxyphenyl)isoquinolin-8-yl)methyl)-2-(4-phenoxyphenyl)acetamide] | 2160
19 | COc1cccc(-c2ccc(CNC(=O)Cc3cccc(Cl)c3)c3cnccc23)c1 [Example 54, 2-(3-chlorophenyl)-N-((5-(3-methoxyphenyl)isoquinolin-8-yl)methyl)acetamide] | 2760
20 | COc1cccc(-c2ccc(CNC(=O)Cc3ccccc3Oc3ccccc3)c3cnccc23)c1 [Example 55, N-((5-(3-methoxyphenyl)isoquinolin-8-yl)methyl)-2-(2-phenoxyphenyl)acetamide] | 306
21 | COc1cccc(-c2ccc(CNC(=O)Cc3cccc(S(C)(=O)=O)c3)c3cnccc23)c1 [Example 56, N-((5-(3-methoxyphenyl)isoquinolin-8-yl)methyl)-2-(3-(methylsulfonyl)phenyl)acetamide] | 1640

Row | SMILES | IC50 [nM]
22 | COc1cccc(-c2ccc(CNC(=O)Cc3ccc(OC(F)(F)F)cc3)c3cnccc23)c1 [Example 57, N-((5-(3-methoxyphenyl)isoquinolin-8-yl)methyl)-2-(4-(trifluoromethoxy)phenyl)acetamide] | 4450
23 | COc1cccc(-c2ccc(CNC(=O)Cc3ccc(F)c(F)c3F)c3cnccc23)c1 [Example 58, N-((5-(3-methoxyphenyl)isoquinolin-8-yl)methyl)-2-(2,3,4-trifluorophenyl)acetamide] | 7290
24 | COc1cccc(-c2ccc(CNC(=O)Cc3cc(F)c(F)cc3F)c3cnccc23)c1 [Example 59, N-((5-(3-methoxyphenyl)isoquinolin-8-yl)methyl)-2-(2,4,5-trifluorophenyl)acetamide] | 550
25 | COc1cccc(-c2ccc(CNC(=O)Cc3cc(F)c(F)c(F)c3)c3cnccc23)c1 [Example 60, N-((5-(3-methoxyphenyl)isoquinolin-8-yl)methyl)-2-(3,4,5-trifluorophenyl)acetamide] | 2140
26 | COc1cccc(-c2ccc(CNC(=O)Cc3ccccc3OC(F)(F)F)c3cnccc23)c1 [Example 61, N-((5-(3-methoxyphenyl)isoquinolin-8-yl)methyl)-2-(2-(trifluoromethoxy)phenyl)acetamide] | 758
27 | COc1cccc(-c2ccc(CNC(=O)Cc3cccc(OC(F)(F)F)c3)c3cnccc23)c1 [Example 62, N-((5-(3-methoxyphenyl)isoquinolin-8-yl)methyl)-2-(3-(trifluoromethoxy)phenyl)acetamide] | 602
28 | COc1cccc(-c2ccc(CNC(=O)Cc3ccc4c(c3)OCCO4)c3cnccc23)c1 [Example 63, 2-(2,3-dihydrobenzo[b][1,4]dioxin-6-yl)-N-((5-(3-methoxyphenyl)isoquinolin-8-yl)methyl)acetamide] | 3050
29 | COc1cccc(-c2ccc(CNC(=O)Cc3csc(-c4ccc(F)cc4)n3)c3cnccc23)c1 [Example 64, 2-(2-(4-fluorophenyl)thiazol-4-yl)-N-((5-(3-methoxyphenyl)isoquinolin-8-yl)methyl)acetamide] | 609
30 | COc1cccc(-c2ccc(CNC(=O)c3cn(-c4ccccc4)nc3-c3ccccc3)c3cnccc23)c1 [Example 66, N-((5-(3-methoxyphenyl)isoquinolin-8-yl)methyl)-1,3-diphenyl-1H-pyrazole-4-carboxamide] | 479
31 | COc1cccc(-c2ccc(CNC(=O)c3ccc(N4CCCC4=O)cc3)c3cnccc23)c1 [Example 67, N-((5-(3-methoxyphenyl)isoquinolin-8-yl)methyl)-4-(2-oxopyrrolidin-1-yl)benzamide] | 1950
32 | COc1cccc(-c2ccc(CNC(=O)c3cccc(-n4nc(C)cc4C)c3)c3cnccc23)c1 [Example 68, 3-(3,5-dimethyl-1H-pyrazol-1-yl)-N-((5-(3-methoxyphenyl)isoquinolin-8-yl)methyl)benzamide] | 1650
33 | COc1cccc(-c2ccc(CNC(=O)c3ccnc(-n4cnnn4)c3)c3cnccc23)c1 [Example 69, N-((5-(3-methoxyphenyl)isoquinolin-8-yl)methyl)-2-(1H-tetrazol-1-yl)isonicotinamide] | 3410
34 | COc1cccc(-c2ccc(CNC(=O)c3coc(-c4ccccc4)n3)c3cnccc23)c1 [Example 70, N-((5-(3-methoxyphenyl)isoquinolin-8-yl)methyl)-2-phenyloxazole-4-carboxamide] | 2330
35 | COc1cccc(-c2ccc(CNC(=O)c3noc(-c4ccccc4)n3)c3cnccc23)c1 [Example 72, N-((5-(3-methoxyphenyl)isoquinolin-8-yl)methyl)-5-phenyl-1,2,4-oxadiazole-3-carboxamide] | 3890
36 | COc1cccc(-c2ccc(CNC(=O)c3c[nH]c(-c4ccccc4)n3)c3cnccc23)c1 [Example 73, N-((5-(3-methoxyphenyl)isoquinolin-8-yl)methyl)-2-phenyl-1H-imidazole-4-carboxamide] | 5840
37 | COc1cccc(-c2ccc(CNC(=O)c3ccn(-c4ccccc4)n3)c3cnccc23)c1 [Example 74, N-((5-(3-methoxyphenyl)isoquinolin-8-yl)methyl)-1-phenyl-1H-pyrazole-3-carboxamide] | 1270
38 | COc1cccc(-c2ccc(CNC(=O)c3cnc(-c4ccccc4)cn3)c3cnccc23)c1 [Example 75, N-((5-(3-methoxyphenyl)isoquinolin-8-yl)methyl)-5-phenylpyrazine-2-carboxamide] | 9050
39 | COc1cccc(-c2ccc(CNC(=O)c3ccc(-c4ccon4)cc3)c3cnccc23)c1 [Example 76, 4-(isoxazol-3-yl)-N-((5-(3-methoxyphenyl)isoquinolin-8-yl)methyl)benzamide] | 4460
40 | COc1cccc(-c2ccc(CNC(=O)c3ccncc3-c3ccccc3)c3cnccc23)c1 [Example 77, N-((5-(3-methoxyphenyl)isoquinolin-8-yl)methyl)-3-phenylisonicotinamide] | 1220
